Assay results reported in patent publication US20090221619A1, “NOVEL MATERIALS AND METHODS FOR THE PRODUCTION THEREOF” (SYNGENTA CROP PROTECTION, INC., priority 2005, published 2009).
Converted amounts (≈) assume the structure as drawn. Read-outs that look alike come from different tables or passages of the source.

Legend:
Assay type in all cases: cell-based
Aureobasidium pullulans [1] = experiment: MIC value generation: liquid culture assay on 24 well plates, solo ai; details: A. pullulans; for EC95: concentration for 95% activity estimated from graph; for MIC: Aureobasidium pullulans, rates 0-100 mg ai/l, mean values of n = 5, read-out: MIC Minimal inhibition concentration
Procedure: (§1) Stachybotrys chartarum, and Aureobasidium pullulans were separately cultivated on PDA media to […] sporulation. Spore suspensions were produced for each fungi.
(§2) Test method used: liquid culture assay on 24 well plates.
(§3) For solo (i.e. single) ai testing the formulated fungicide (100 ul) was filled into the 24 well plates (8 different rates: 100-0.05 mg ai/l final volume as described above) and 100 ul distilled water was added. Afterwards 800 ul of 0.3% PDA media was added to the plate. The spore suspension of the specific fungi was added to this media in advance containing approx. 100.000 spores/ml. The 24 well plates were sealed and incubated at 24° C.
(§4) Dependent on the growth prosperities of each organisms, the evaluation was done after 3 to 6 days, when the surface of the check well was covered with mycelium. The evaluation was performed by assessing the growth of the fungi related to the check growth. The results are expressed as % activity relative to the check (values of 0-100% growth). Afterwards the results were converted in % growth inhibition. EC95 values and also MIC (minimal inhibition concentration) values were derived for each compound.
(§5) For each solo compound a graph was drawn of percentage inhibition against the concentration of the fungicide. From this graph the concentration of the fungicide required to achieve 95% activity was estimated. Also the concentration that gave the minimum inhibition concentration was derived as MIC value.

Stachybotrys chartarum [2] = experiment: as above; details: S. chartarum; for EC95: concentration for 95% activity estimated from graph; for MIC: Stachybotrys chartarum, rates 0-100 mg ai/l, mean values of n = 5, read-out: MIC Minimal inhibition concentration
Procedure: as §1, §2, §3, §4, §5

Aureobasidium pullulans [3] = experiment: Synergy testing of 2 way mixtures, liquid culture on 24 well plates (Colby); details: A. pullulans; for inhibition at 50 µg/mL: CDL 50 mg ai/l; for inhibition at 100 µg/mL: CDL 100 mg ai/l
Procedure: (§6) For synergism testing of the 2 way mixtures 100 ul of each fungicide were filled into the 24 well plates (8 different rates) and 800 ul of 0.3% PDA media containing the spore suspension was added (see above). Different ratios of the 2 fungicide rates were tested at the same time.
(§7) Stachybotrys chartarum and Aureobasidium pullulans were separately cultivated on PDA media to […] sporulation. Spore suspensions were produced for each fungi.
(§8) For the mixtures of different fungicides the synergism was calculated based on the Colby equation, which is described below: […]
(§9) The fungicidal action to be expected, We, for a given combination of two fungicides can be calculated as follows (see COLBY, S. R. “Calculating synergistic and antagonistic response of herbicide combinations”. Weeds 15, pages 20-22; 1967):
(§10) wherein: X=% activity in the case of treatment with the compound of formula I at rate x, in comparison with untreated control (=0%). Y=% activity in the case of treatment with a compound of formula II at rate y, in comparison with untreated control. We=expected activity (% activity in comparison with untreated control) after treatment with the compound of formula I and a compound of formula II at a rate of x+y kg of active ingredient.
(§11) If the activity actually observed is greater than the expected value We, there is a synergistic effect.
(§12) All rates below are expressed as mg ai/l (i.e. ppm).

Stachybotrys chartarum [4] = experiment: as above; details: S. chartarum
Procedure: as §6, §7, §8, §9, §10, §11, §12

[5] = CDL 12.5 mg ai/l, PPZ table, read-out: inh % (CDL alone)
[6] = CCZ table, read-out: inh % (CDL alone)
[7] = DFZ table, read-out: inh % (CDL alone)
[8] = PPZ table, read-out: inh % (CDL alone)
[9] = TBZ table, read-out: inh % (CDL alone)
[10] = PPZ 3.1 mg ai/l, read-out: inh % (PPZ alone)

For `c1ccc2[nH]c(-c3cscn3)nc2c1` [TBZ, Thiabendazole], the EC95 (Aureobasidium pullulans [1]) was 15 mg ai/l, the MIC (Aureobasidium pullulans [1]) was 50 µg/mL (≈ 248 µM) and the EC95 (Stachybotrys chartarum [2]) was 46 mg ai/l. The MIC (Stachybotrys chartarum [2]) was 50 µg/mL (≈ 248 µM) and the inhibition at 12.5 µg/mL (Aureobasidium pullulans [3]; TBZ 12.5 mg ai/l, read-out: inh % (TBZ alone)) was 90%.

Molecule `Cc1cc(C2CC2)nc(Nc2ccccc2)n1` [CDL, Cyprodinil] has an EC95 (Aureobasidium pullulans [1]) of over 100 mg ai/l, an MIC (Aureobasidium pullulans [1]) of over 100 µg/mL and an EC95 (Stachybotrys chartarum [2]) of 46 mg ai/l. For the same molecule, the MIC (Stachybotrys chartarum [2]) was 50 µg/mL (≈ 222 µM), the inhibition at 0.8 µg/mL (Aureobasidium pullulans [3]; CDL 0.8 mg ai/l, DFZ table, read-out: inh % (CDL alone)) was 0% and the inhibition at 1.6 µg/mL (Aureobasidium pullulans [3]; CDL 1.6 mg ai/l, CCZ table, read-out: inh % (CDL alone)) was 10%. For the same molecule, the inhibition at 1.6 µg/mL (Aureobasidium pullulans [3]; CDL 1.6 mg ai/l, DFZ table, read-out: inh % (CDL alone)) was 10%, the inhibition at 1.6 µg/mL (Aureobasidium pullulans [3]; CDL 1.6 mg ai/l, PPZ table, read-out: inh % (CDL alone)) was 10% and the inhibition at 1.6 µg/mL (Aureobasidium pullulans [3]; CDL 1.6 mg ai/l, TBZ table, read-out: inh % (CDL alone)) was 10%. The inhibition at 3.1 µg/mL (Aureobasidium pullulans [3]; CDL 3.1 mg ai/l, DFZ table, read-out: inh % (CDL alone)) was 10%, the inhibition at 3.1 µg/mL (Aureobasidium pullulans [3]; CDL 3.1 mg ai/l, PPZ table, read-out: inh % (CDL alone)) was 10% and the inhibition at 3.1 µg/mL (Aureobasidium pullulans [3]; CDL 3.1 mg ai/l, TBZ table, read-out: inh % (CDL alone)) was 10%. For the same molecule, the inhibition at 12.5 µg/mL (Aureobasidium pullulans [3]; CDL 12.5 mg ai/l, CCZ table, read-out: inh % (CDL alone)) was 30%, the inhibition at 12.5 µg/mL (Aureobasidium pullulans [3]; CDL 12.5 mg ai/l, DFZ table, read-out: inh % (CDL alone)) was 30% and the inhibition at 12.5 µg/mL (Aureobasidium pullulans [3]; [5]) was 30%. It also gave an inhibition at 12.5 µg/mL (Aureobasidium pullulans [3]; CDL 12.5 mg ai/l, TBZ table, read-out: inh % (CDL alone)) of 30%, an inhibition at 50 µg/mL (Aureobasidium pullulans [3]; [6]) of 30% and an inhibition at 50 µg/mL (Aureobasidium pullulans [3]; [7]) of 30%. For the same molecule, the inhibition at 50 µg/mL (Aureobasidium pullulans [3]; [8]) was 30%, the inhibition at 50 µg/mL (Aureobasidium pullulans [3]; [9]) was 50% and the inhibition at 100 µg/mL (Aureobasidium pullulans [3]; [6]) was 30%. The inhibition at 100 µg/mL (Aureobasidium pullulans [3]; [7]) was 30%, the inhibition at 100 µg/mL (Aureobasidium pullulans [3]; [8]) was 30% and the inhibition at 100 µg/mL (Aureobasidium pullulans [3]; [9]) was 50%. It also gave an inhibition at 3.1 µg/mL (Stachybotrys chartarum [4]; CDL 3.1 mg ai/l, CCZ table, read-out: inh % (CDL alone)) of 0% and an inhibition at 12.5 µg/mL (Stachybotrys chartarum [4]; [5]) of 70%.

`CC1COC(Cn2cncn2)(c2ccc(Oc3ccc(Cl)cc3)cc2Cl)O1` (stereo not drawn) [DFZ, Difenoconazole] was tested, and the EC95 (Aureobasidium pullulans [1]) was 8 mg ai/l, the MIC (Aureobasidium pullulans [1]) was 12.5 µg/mL (≈ 30.8 µM) and the EC95 (Stachybotrys chartarum [2]) was 2.7 mg ai/l. For the same molecule, the MIC (Stachybotrys chartarum [2]) was 3.1 µg/mL (≈ 7.63 µM), the inhibition at 0.8 µg/mL (Aureobasidium pullulans [3]; DFZ 0.8 mg ai/l, read-out: inh % (DFZ alone)) was 90% and the inhibition at 1.6 µg/mL (Aureobasidium pullulans [3]; DFZ 1.6 mg ai/l, read-out: inh % (DFZ alone)) was 90%. The inhibition at 3.1 µg/mL (Aureobasidium pullulans [3]; DFZ 3.1 mg ai/l, read-out: inh % (DFZ alone)) was 70%.

Work on `CCCC1COC(Cn2cncn2)(c2ccc(Cl)cc2Cl)O1` (stereo not drawn) [PPZ, Propiconazole] yielded an EC95 (Aureobasidium pullulans [1]) of 36 mg ai/l, an MIC (Aureobasidium pullulans [1]) of 50 µg/mL (≈ 146 µM) and an EC95 (Stachybotrys chartarum [2]) of over 100 mg ai/l. The MIC (Stachybotrys chartarum [2]) was over 100 µg/mL, the inhibition at 3.1 µg/mL (Aureobasidium pullulans [3]; [10]) was 70% and the inhibition at 12.5 µg/mL (Aureobasidium pullulans [3]; PPZ 12.5 mg ai/l, read-out: inh % (PPZ alone)) was 70%. The inhibition at 0.2 µg/mL (Stachybotrys chartarum [4]; PPZ 0.2 mg ai/l, read-out: inh % (PPZ alone)) was 0%, the inhibition at 1.6 µg/mL (Stachybotrys chartarum [4]; PPZ 1.6 mg ai/l, read-out: inh % (PPZ alone)) was 0% and the inhibition at 3.1 µg/mL (Stachybotrys chartarum [4]; [10]) was 10%.

`CC(C1CC1)C(O)(Cn1cncn1)c1ccc(Cl)cc1` (stereo not drawn) [CCZ, Cyproconazole] gave an EC95 (Aureobasidium pullulans [1]) of 6.5 mg ai/l, an MIC (Aureobasidium pullulans [1]) of 12.5 µg/mL (≈ 42.8 µM) and an EC95 (Stachybotrys chartarum [2]) of over 100 mg ai/l. For the same molecule, the MIC (Stachybotrys chartarum [2]) was over 100 µg/mL, the inhibition at 1.6 µg/mL (Aureobasidium pullulans [3]; CCZ 1.6 mg ai/l, read-out: inh % (CCZ alone)) was 70% and the inhibition at 3.1 µg/mL (Aureobasidium pullulans [3]; CCZ 3.1 mg ai/l, read-out: inh % (CCZ alone)) was 90%. For the same molecule, the inhibition at 100 µg/mL (Stachybotrys chartarum [4]; CCZ 100 mg ai/l, read-out: inh % (CCZ alone)) was 50%.
